Experimental data taken from ChEMBL document CHEMBL5647694, “Novel orally bioavailable EZH1/2 dual inhibitors with greater antitumor efficacy than an EZH2 selective inhibitor” (Cancer Sci, 2017).

Key:
[1] = target: Calcium/calmodulin-dependent protein kinase type 1 (Homo sapiens) (UniProt Q14012); assay: Inhibition of N-terminal GST-tagged full length human CAMK1a (1 to 370 residues) expressed in baculovirus-infected Sf21 cells using GS peptide as substrate at 1 uM in presence of ATP by Mobility shift assay
[2] = target: Casein kinase I isoform delta (Homo sapiens) (UniProt P48730); assay: Inhibition of N-terminal GST-fused human CK1delta catalytic domain (1 to 294 residues) expressed in Escherichia coli expression system using CKtide as substrate at 1 uM in presence of ATP by Mobility shift assay
[3] = target: Serine/threonine-protein kinase Sgk3 (Homo sapiens) (UniProt Q96BR1); assay: Inhibition of N-terminal GST-fused truncated human SGK3 (119 to 496 residues) expressed in baculovirus expression system using SGKtide as substrate at 1 uM in presence of ATP by Mobility shift assay
[4] = target: Calcium/calmodulin-dependent protein kinase type II subunit alpha (Homo sapiens) (UniProt Q9UQM7); assay: Inhibition of N-terminal GST-fused full length human CAMK2a (1 to 478 residues) expressed in baculovirus-infected Sf21 cells using GS peptide as substrate at 1 uM in presence of ATP by Mobility shift assay
[5] = target: Tyrosine-protein kinase Fer (Homo sapiens) (UniProt P16591); assay: Inhibition of N-terminal GST-fused full length human FER (1 to 822 residues) expressed in baculovirus-infected Sf21 cells using Srctide as substrate at 1 uM in presence of ATP by Mobility shift assay
[6] = target: Aurora kinase A (Homo sapiens) (UniProt O14965); assay: Inhibition of N-terminal GST-fused full length human AurA (1 to 403 residues) expressed in baculovirus-infected Sf21 cells using Kemptide as substrate at 1 uM in presence of ATP by Mobility shift assay
[7] = target: RAC-gamma serine/threonine-protein kinase (Homo sapiens) (UniProt Q9Y243); assay: Inhibition of N-terminal GST-tagged human AKT3 catalytic domain (108 to 479 residues) co-expressed with His-tagged PDK1 (1 to 556 residues) in baculovirus-infected Sf21 cells using Crosstide as substrate at 1 uM in presence of ATP by Mobility shift assay
[8] = target: Epithelial discoidin domain-containing receptor 1 (Homo sapiens) (UniProt Q08345); assay: Inhibition of N-terminal GST-fused human DDR1 cytoplasmic domain (444 to 876 residues) expressed in baculovirus-infected Sf21 cells using IRS1 as substrate at 1 uM in presence of ATP by Mobility shift assay
[9] = target: Calcium/calmodulin-dependent protein kinase type II subunit delta (Homo sapiens) (UniProt Q13557); assay: Inhibition of N-terminal GST-tagged full length human CAMK2d (1 to 478 residues) expressed in baculovirus-infected Sf21 cells using GS peptide as substrate at 1 uM in presence of ATP by Mobility shift assay
[10] = target: Mast/stem cell growth factor receptor Kit (Homo sapiens) (UniProt P10721); assay: Inhibition of N-terminal GST-tagged human KIT cytoplasmic domain (544 to 976 residues) expressed in baculovirus-infected Sf21 cells using Srctide as substrate at 1 uM in presence of ATP by Mobility shift assay
[11] = target: Fibroblast growth factor receptor 4 (Homo sapiens) (UniProt P22455); assay: Inhibition of N-terminal GST-fused human FGFR4 cytoplasmic domain (460 to 802 residues) expressed in baculovirus-infected Sf21 cells using CSKtide as substrate at 1 uM in presence of ATP by Mobility shift assay
[12] = target: Serine/threonine-protein kinase Chk2 (Homo sapiens) (UniProt O96017); assay: Inhibition of N-terminal GST-fused full length human CHK2 (1 to 543 residues) expressed in baculovirus expression system using CHKtide as substrate at 1 uM in presence of ATP by Mobility shift assay
[13] = target: Serine/threonine-protein kinase pim-1 (Homo sapiens) (UniProt P11309); assay: Inhibition of N-terminal His-tagged full length human PIM1 (1 to 313 residues) expressed in baculovirus expression system using S6K2 peptide as substrate at 1 uM in presence of ATP by Mobility shift assay
[14] = target: CDK9/cyclin T1 (Homo sapiens) (UniProt O60563+P50750); assay: Inhibition of N-terminal GST-fused full length human CDK9 (1 to 372 residues)/human His-CyclinT1 (1 to 726 residues) expressed in baculovirus expression system using CDK9 substrate at 1 uM in presence of ATP by Mobility shift assay
[15] = target: TRAF2 and NCK-interacting protein kinase (Homo sapiens) (UniProt Q9UKE5); assay: Inhibition of N-terminal GST-fused human TNIK catalytic domain (1 to 314 residues) expressed in baculovirus expression system using Moesin-derived peptide as substrate at 1 uM in presence of ATP by Mobility shift assay
[16] = target: Mitogen-activated protein kinase 3 (Homo sapiens) (UniProt P27361); assay: Inhibition of N-terminal GST-fused full length human ERK1 (1 to 379 residues) expressed in Escherichia coli expression system using Modified Erktide as substrate at 1 uM in presence of ATP by Mobility shift assay
[17] = target: Casein kinase II alpha'/ beta (Homo sapiens) (UniProt P67870+P19784); assay: Inhibition of N-terminal GST-fused full length human CK2alpha2 (1 to 350 residues)/His-tagged human CK2beta (1 to 215 residues ) expressed in baculovirus expression system using CK2tide as substrate at 1 uM in presence of ATP by Mobility shift assay
[18] = target: Cyclin-dependent kinase 2/cyclin E1 (Homo sapiens) (UniProt P24864+P24941); assay: Inhibition of N-terminal GST-tagged full length human CDK2 (1 to 298 residues)/N-terminal GST-tagged human CyclinE1 (1 to 410 residues) expressed in baculovirus-infected Sf21 cells using Modified Histone H1 as substrate at 1 uM in presence of ATP by Mobility shift assay
[19] = target: Tyrosine-protein kinase Mer (Homo sapiens) (UniProt Q12866); assay: Inhibition of N-terminal GST-tagged human MER cytoplasmic domain (528 to 999 residues) expressed in baculovirus-infected Sf21 cells using CSKtide as substrate at 1 uM in presence of ATP by Mobility shift assay
[20] = target: Serine/threonine-protein kinase pim-2 (Homo sapiens) (UniProt Q9P1W9); assay: Inhibition of N-terminal GST-tagged full length human PIM2 (1 to 311 residues) expressed in baculovirus expression system using S6K2 peptide as substrate at 1 uM in presence of ATP by Mobility shift assay
[21] = target: Tyrosine-protein kinase BTK (Homo sapiens) (UniProt Q06187); assay: Inhibition of N-terminal GST-fused full length human BTK (2 to 659 residues) expressed in baculovirus infected Sf21 cells using Srctide as substrate at 1 uM in presence of ATP by Mobility shift assay
[22] = target: Serine/threonine-protein kinase MARK1 (Homo sapiens) (UniProt Q9P0L2); assay: Inhibition of N-terminal GST-fused full length human MARK1 (1 to 795 residues) expressed in baculovirus expression system using CHKtide as substrate at 1 uM in presence of ATP by Mobility shift assay

Compound | inhibition [1] [%] | inhibition [2] [%] | inhibition [3] [%] | inhibition [4] [%] | inhibition [5] [%] | inhibition [6] [%] | inhibition [7] [%] | inhibition [8] [%] | inhibition [9] [%] | inhibition [10] [%] | inhibition [11] [%] | inhibition [12] [%] | inhibition [13] [%] | inhibition [14] [%] | inhibition [15] [%] | inhibition [16] [%] | inhibition [17] [%] | inhibition [18] [%] | inhibition [19] [%] | inhibition [20] [%] | further results
Cc1cc(C)c(CNC(=O)c2cc(Br)c3c(c2C)O[C@@](C)([C@H]2CC[C@H](N(C)C)CC2)O3)c(=O)[nH]1 | 0.2 | -3 | -4.5 | -1.1 | 0.1 | 0.6 | -6.2 | -3.3 | -1.4 | -4.7 | -3.7 | 0.7 | 1.3 | -5.3 | 1.1 | -2.6 | -5.5 | 19.9 | -1.5 | -3.9 | inhibition [21]: -10%; inhibition [22]: -4.5%
Cc1cc(C)c(CNC(=O)c2cc(Cl)c3c(c2C)O[C@@](C)([C@H]2CC[C@H](N(C)C)CC2)O3)c(=O)[nH]1 [VALEMETOSTAT] | -2.8 | -3.8 | 0.3 | -2.8 | -3.7 | -0.5 | -5.3 | -3.7 | -4.5 | -5.6 | -5.6 | -2.2 | 17.1 | 4.3 | 0.3 | -4.1 | -4.7 | -2.1 | -1.6 | -1.4 | inhibition [21]: -9%; inhibition [22]: -7.1%
